Legend:
[1] = Colon pharmacokinetics in mice; format: in vivo; conditions: colon to plasma concentration ratio at 8 h time point, 30 mg/kg oral gavage in 0.5% methyl-cellulose, Male C57BL/6 Mouse; for Kp at 8 h: read-out: Mouse TD Colon/Plasma @ 8
Description: Assay 2: Colon Pharmacokinetics in Mice
The test compound was formulated in 0.5% methyl-cellulose in water and dosed via oral gavage at 30 mg/kg to Male C57BL/6 Mouse. At various time points (typically 15 min, 30 min, 1, 2, 4, 6 and 8 h) post dosing, blood samples were removed via cardiac […] puncture and intact colons were excised from the […]. Blood samples were centrifuged at 1500 x g for 15 min to collect plasma. At the terminal time point each individual animal is anaesthetized, abdominal cavity is opened and from 2 cm below the caecum a 4 cm sample of the colon is dissected, cut open on the longitudinal axis and the solid contents removed by flushing with 2 mL of physiological fluid. The colon was further washed by putting it in 5 mL of physiological saline and shaken for 1 minute. The colon was pet dry weighed and transferred in 2 mL tubes. Colon will be weighted and homogenized with water by tissue weight (g) to water volume (mL) at ratio 1:3 before analysis. The actual concentration is the detected value multiplied by the dilution factor. A colon to plasma ratio was determined as the ratio of the colon cone, to the plasma cone, in pg hr/g, at 8 h time point.

[2] = test system: IL-1β production in PMA-differentiated THP-1 cells; assay: IL-1β production in PMA-differentiated THP-1 cells stimulated with gramicidin (hTHP-1 assay, 2% fetal bovine serum); format: cell-based, human
Description: THP-1 cells were purchased from the American Type Culture Collection and sub-cultured according to instructions from the supplier. Cells were cultured in complete RPMI 1640 (containing 10% heat inactivated FBS, penicillin (100 units/ml) and streptomycin (100 μg/ml)), and maintained in log phase prior to experimental setup. Prior to the experiment, compounds were dissolved in dimethyl sulfoxide (DMSO) to generate a 30 mM stock. The compound stock was first pre-diluted in DMSO to 3, 0.34, 0.042 and 0.0083 mM intermediate concentrations and subsequently spotted using Echo550 liquid handler into an empty 384-well assay plate to achieve desired final concentration (e.g. 100, 33, 11, 3,7, 1.2, 0.41, 0.14, 0.046, 0.015, 0.0051, 0.0017 μM). DMSO was backfilled in the plate to achieve a final DMSO assay concentration of 0.37%. The plate was then sealed and stored at room temperature until required. THP-1 cells were treated with PMA (Phorbol 12-myristate 13-acetate) (20 ng/ml) for 16-18 hours. On the day of the experiment the media was removed and adherent cells were detached with trypsin for 5 minutes. Cells were then harvested, washed with complete RPMI 1640, spun down, and resuspended in RPMI 1640 (containing 2% heat inactivated FBS, penicillin (100 units/ml) and streptomycin (100 μg/ml). The cells were plated in the 384-well assay plate containing the spotted compounds at a density of 50,000 cells/well (final assay volume 50 μl). Ceils were incubated with compounds for 1 hour and then stimulated with gramicidin (5 μM) (Enzo) for 2 hours. Plates were then centrifuged at 340 g for 5 min. Cell free supernatant (40 μL) was collected using a 96-channel PlateMaster (Gilson) and the production of IL-1β was evaluated by HTRF (cisbio). The plates were incubated for 18 h at 4° C. and read using the preset HTRF program (donor emission at 620 nm, acceptor emission at 668 nm) of the SpectraMax i3x spectrophotometer (Molecular Devices, software SoftMax 6). A vehicle only control and a dose titration of CRID3 (100-0.0017 μM) were run concurrently with each experiment. Data was normalized to vehicle-treated samples (equivalent to 0% inhibition) and CRID3 at 100 μM (equivalent to 100% inhibition).
Procedure 2: IL-1β Production in PMA-Differentiated THP-1 Cells Stimulated with Gramicidin
THP-1 cells were purchased from the American Type Culture Collection and sub-cultured according to instructions from the supplier. Prior to experiments, cells were cultured in complete RPMI 1640 (containing 10% heat inactivated FBS, penicillin (100 units/ml) and streptomycin (100 μg/ml)), and maintained in log phase prior to experimental setup. Prior to the experiment THP-1 were treated with PMA (Phorbol 12-myristate 13-acetate) (20 ng/mi) for 16-18 hours. Compounds were dissolved in dimethyl sulfoxide (DMSO) to generate a 30 mM stock. On the day of the experiment the media was removed and adherent cells were detached with trypsin for 5 minutes. Cells were then harvested, washed with complete RPMI 1640, spun down, resuspended in RPMI 1640 (containing 2% heat inactivated FBS, penicillin (100 units/ml) and streptomycin (100 μg/ml), The cells were plated in a 384-well plate at a density of 50,000 cells/well (final assay volume 50 μl). Compounds were first dissolved in assay medium to obtain a 5× top concentration of 500 μM. 10 step dilutions (1:3) were then undertaken in assay medium containing 1.67% DMSO. 5× compound solutions were added to the culture medium to achieve desired final concentration (e.g. 100, 33, 11, 3.7, 1.2, 0.41, 0.14, 0.046, 0.015, 0.0051, 0.0017 μM). Final DMSO concentration was at 0.37%. Cells were incubated with compounds for 1 hour and then stimulated with gramicidin (5 μM) (Enzo) for 2 hours. Plates were then centrifuged at 340 g for 5 min. Cell free supernatant (40 μL) was collected using a 96-channel PlateMaster (Gilson) and the production of IL-1β was evaluated by HTRF (cisbio). […]

[3] = Homo sapiens, THP-1, average IC50, hTHP-1 assay containing 2% fetal bovine serum, class symbols
[4] = average IC50, hTHP-1 assay containing 2% fetal bovine serum, class symbols
[5] = Homo sapiens, THP-1, average IC50, hTHP-1 assay containing 2% fetal bovine serum, given as numeric bound

Row | IC50 [2, 3] | Compound | further results
1 | 200 to 1000 nM | CNS(=O)(=O)c1ccc(S(=O)(=O)NC(=O)Nc2c3c(nc4c2CCC4)CCC3)c(CO)c1 [Compound 103] | –
2 | 1000 to 5000 nM | CC(C)c1cncc(C(C)C)c1NC(=O)NS(=O)(=O)c1sc(C(C)(C)O)nc1CO [Compound 104] | –
3 | 1000 to 5000 nM | CNS(=O)(=O)c1ccc(S(=O)(=O)NC(=O)Nc2c(C(C)C)cncc2C(C)C)c(CO)c1 [Compound 105] | –
4 | 200 to 1000 nM | CC(C)c1cc2c(c(C(C)C)c1NC(=O)NS(=O)(=O)c1sc(C(C)(C)O)nc1CO)COC2 [Compound 106] | –
5 | – | CC(C)c1nc(-c2cccc(C(F)(F)F)c2)c(F)c(C(C)C)c1NC(=O)NS(=O)(=O)c1sc(C(C)(C)O)nc1CO[Si](C)(C)C(C)(C)C [Compound 107] | IC50 ([2]; Homo sapiens, THP-1): 1000 to 5000 nM
6 | 1000 to 5000 nM | CNS(=O)(=O)c1ccc(S(=O)(=O)NC(=O)Nc2c3c(nc4c2CCC4)CCC3)c(OC)c1 [Compound 108] | –
7 | 1000 to 5000 nM | CNS(=O)(=O)c1ccc(S(=O)(=O)NC(=O)Nc2c(C(C)C)cncc2C(C)C)cc1CO [Compound 109] | –
8 | 1000 to 5000 nM | CC(C)(O)c1nc(CO)c(S(=O)(=O)NC(=O)Nc2c3c(nc4c2CCC4)CCC3)s1 [Compound 111] | –
9 | 1000 to 5000 nM | CC(C)c1c(F)c(C#N)cc(C2CCOCC2)c1NC(=O)NS(=O)(=O)c1sc(C(C)(C)O)nc1CO [Compound 112] | –
10 | 5000 to 30000 nM | CC(C)c1cc(C#N)cc(CCO)c1NC(=O)NS(=O)(=O)c1sc(C(C)(C)O)nc1CO [Compound 114] | –
11 | 5000 to 30000 nM | CNS(=O)(=O)c1ccc(S(=O)(=O)NC(=O)Nc2c(C(C)C)cc(C#N)cc2C(C)C)c(C(=O)OC)c1 [Compound 115] | –
12 | 40 to 200 nM | CNS(=O)(=O)c1ccc(S(=O)(=O)NC(=O)Nc2c(C(C)C)cc(C#N)c(F)c2C(C)C)c(O)c1 [Compound 117] | –
13 | – | CNS(=O)(=O)c1ccc(S(=O)(=O)NC(=O)Nc2c(C(C)C)cc(C#N)c(F)c2C(C)C)c(OC)c1 [Compound 118] | Kp at 8 h [1]: 5950; IC50 [2, 4]: 200 to 1000 nM
14 | 40 to 200 nM | CNS(=O)(=O)c1ccc(S(=O)(=O)NC(=O)Nc2c(C(C)C)cc(C#N)cc2C(C)C)c(O)c1 [Compound 119] | –
15 | – | CNS(=O)(=O)c1ccc(S(=O)(=O)NC(=O)Nc2c(C(C)C)cc(C#N)c(F)c2C(C)C)c(OC)c1 [Compound 120] | IC50 [2, 4]: 40 to 200 nM
16 | 1000 to 5000 nM | CC(C)c1cc(C#N)cc(C2CC2)c1NC(=O)NS(=O)(=O)c1sc(C(C)(C)O)nc1CO [Compound 121] | –
17 | 200 to 1000 nM | CC(C)(O)c1nc(CO)c(S(=O)(=O)NC(=O)Nc2c3c(nc4c2CCC4(C)C)CCC3)s1 [Compound 201] | –
18 | 200 to 1000 nM | CC1CCc2c1nc1c(c2NC(=O)NS(=O)(=O)c2sc(C(C)(C)O)nc2CO)CCC1 (stereo not shown) [Compound 202] | –
19 | 1000 to 5000 nM | CNS(=O)(=O)c1ccc(S(=O)(=O)NC(=O)Nc2c3c(nc4c2CCC4C)CCC3)c(CO)c1 (stereo not shown) [Compound 203] | –
20 | – | CC(C)c1c(F)c(C#N)cc(C2CCOCC2)c1NC(=O)NS(=O)(=O)c1sc(C(C)(C)O)nc1CO [Compound 204] | IC50 [2, 5]: > 15000 nM
21 | 200 to 1000 nM | CC(C)c1cc(C#N)c(F)c(C(C)C)c1NC(=O)NS(=O)(=O)c1cc(C(C)(C)O)no1 [Compound 301] | –
22 | – | Cc1cc(C(=O)NCCc2ccc(S(=O)(=O)NC(=O)Nc3c(C(C)C)cc(C#N)cc3C(C)C)cc2)no1 [Compound 302] | IC50 [2, 5]: > 30000 nM
23 | – | Cc1cc(C(=O)NCCc2ccc(S(=O)(=O)NC(=O)Nc3c4c(cc5c3CCC5)CCC4)cc2)no1 [Compound 303] | IC50 [2, 5]: > 30000 nM
24 | 5000 to 30000 nM | COC(=O)c1sc2c(c1NC(=O)NS(=O)(=O)c1ncc(C(C)(C)O)s1)CCCC2 [Compound 304] | –
25 | – | O=C(CCCC[C@@H]1SC[C@@H]2NC(=O)N[C@@H]21)NCCCn1cc(CCC(=O)Nc2cccc(S(=O)(=O)NC(=O)Nc3c4c(cc5c3CCC5)CCC4)c2)nn1 [Compound 324] | IC50 [2, 5]: > 30000 nM

Row | Compound | IC50 [2, 3] | further results
26 | CC(C)c1cc(C#N)cc(C(C)C)c1NC(=O)NS(=O)(=O)c1sc(C(C)(C)O)nc1CO [Compound 101] | 200 to 1000 nM | Kp at 8 h [1]: 3000
27 | CC(C)c1cc(C#N)c(F)c(C(C)C)c1NC(=O)NS(=O)(=O)c1sc(C(C)(C)O)nc1CCO [Compound 102] | 40 to 200 nM | Kp at 8 h [1]: 802
28 | CCC(C)c1cc(C#N)c(F)c(C(C)C)c1NC(=O)NS(=O)(=O)c1sc(C(C)(C)O)nc1CO (stereo not shown) [Compound 113] | 200 to 1000 nM | Kp at 8 h [1]: 4560
29 | CNS(=O)(=O)c1ccc(S(=O)(=O)NC(=O)Nc2c(C(C)C)cc(C#N)cc2C(C)C)c(CO)c1 [Compound 116] | 200 to 1000 nM | Mouse TD Colon/Plasma @ 8 [1]: 18,645
30 | CC(C)(O)c1nc(CO)c(S(=O)(=O)NC(=O)Nc2c3c(c(C#N)c4c2CCC4)CCC3)s1 [Compound 122] | 1000 to 5000 nM | Kp at 8 h [1]: 3530
31 | CC(C)c1cc(C#N)c(F)c(C(C)C)c1NC(=O)NS(=O)(=O)c1sc(C(C)(C)O)nc1CO [Compound 123] | 200 to 1000 nM | Mouse TD Colon/Plasma @ 8 [1]: 12,731
32 | CNS(=O)(=O)c1ccc(S(=O)(=O)NC(=O)Nc2c3c(cc4c2CCC4)CCC3)c(O)c1 [Compound 124] | 5000 to 30000 nM | Kp at 8 h [1]: 26

Reference: patent US20220267276A1, “NLRP MODULATORS” (Novartis AG, priority 2018, published 2022)
